The NIST ThermoML archive (doi:10.1016/j.fluid.2015.07.055)
± gives the expanded uncertainty stated by the source.

Legend:
[1] = Molar enthalpy of transition or fusion; settings: Crystal; DSC
[2] = Crystal; DTA

Molar enthalpy of transition or fusion [1]: 30.1 ± 1.4 kJ/mol | Normal melting temperature [2]: 142.0 ± 1.1 °C
Structure (SMILES): CCC(C)(C)C(=O)O[C@H]1C[C@@H](C)C=C2C=C[C@H](C)[C@H](CC[C@@H]3C[C@@H](O)CC(=O)O3)[C@H]21 [(+)-Simvastatin]
